Results from PMC9182199, “Borylated 2,3,4,5-Tetrachlorophthalimide and Their 2,3,4,5-Tetrachlorobenzamide Analogues: Synthesis, Their Glycosidase Inhibition and Anticancer Properties in View to Boron Neutron Capture Therapy” (Molecules, 2022).

Tests used:
almond β-glucosidase = assay: Glycosidase inhibition, laboratory 1: almond β-glucosidase; assay type: biochemical; settings: methanol
Text: (§1) The enzymes α-glucosidase (from yeast), β-glucosidases (from almond and bovine liver), α-galactosidase (from coffee beans), β-galactosidase (from bovine liver), α-mannosidase (from Jack bean), β-mannosidase (from snail), α-L-rhamnosidase (from Penicillium decumbens), α-L-fucosidase (from bovine kidney), trehalase (from porcine kidney), β-glucuronidases (from E. coli and bovine liver), amyloglucosidase (from A. niger), para-nitrophenyl glycosides, and various disaccharides were purchased from Sigma-Aldrich Co (St Louis, MO, USA).
(§2) Brush border membranes were prepared from the rat small intestine according to the method of Kessler et al. and were assayed at pH 6.8 for rat intestinal maltase using maltose. For rat intestinal maltase, porcine kidney trehalase, and A. niger amyloglucosidase activities, the reaction mixture contained 25 mM maltose and the appropriate amount of enzyme, and the incubations were performed for 10–30 min at 37 °C. The reaction was stopped by heating at 100 °C for 3 min. After centrifugation (600× g; 10 min), the resulting reaction mixture was added to the Glucose CII-test Wako (Wako Pure Chemical Ind., Osaka, Japan). The absorbance at 505 nm was measured to determine the amount of the released D-glucose. Other glycosidase activities were determined using an appropriate para-nitrophenyl glycoside as substrate at the optimum pH of each enzyme. The reaction mixture contained 2 mM of the substrate and the appropriate amount of enzyme. The reaction was stopped by addition of 400 mM Na2CO3. The released para-nitrophenol was measured spectrometrically at 400 nm. All reactions run in methanol.

[1] = system: bovine liver β-glucuronidase; assay: Glycosidase inhibition, laboratory 1: bovine liver β-glucuronidase; assay type: biochemical; settings: methanol
Text: as §1, §2

[2] = system: bovine liver β-glucuronidase; assay: Glycosidase inhibition, laboratory 2: bovine liver β-glucuronidase; assay type: biochemical; settings: water
Protocol: (§3) All enzymes and para-nitrophenyl substrates were purchased from Sigma. Enzymes were assayed at 27 °C in 0.1 M citric acid/0.2 M disodium hydrogen phosphate buffers at the optimum pH for the enzyme. The incubation mixture consisted of 10 μL enzyme solution, 10 μL of 1 mg/mL aqueous solution of extract and 50 μL of the appropriate 5 mM para-nitrophenyl substrate made up in buffer at the optimum pH for the enzyme. The reactions were stopped by addition of 70 μL 0.4 M glycine (pH 10.4) during the exponential phase of the reaction, which had been determined at the beginning using uninhibited assays in which water replaced inhibitor. Final absorbances were read at 405 nm using a Versamax microplate reader (Molecular Devices). Assays were carried out in triplicate, and the values given are means of the three replicates per assay. All reactions run in water.

MIA-Pa-Ca2 = assay: MTT cell growth inhibition: MIA-Pa-Ca2; assay type: cell-based; settings: 72 h; for inhibition at 25 µM: Homo sapiens, MIA PaCa-2, MIA-Pa-Ca2 pancreatic carcinoma, read-out: Percentage (%) Cell Growth Inhibition in response to 25 µM of Drug; for Percentage (%) Cell Growth Inhibition in response to 25 µM of Drug: MIA-Pa-Ca2 pancreatic carcinoma
Protocol: All test agents were prepared as stock solutions (20 mM) in dimethyl sulfoxide (DMSO) and stored at −20 °C. Cell lines used in the study included HT29 (colorectal carcinoma); U87, SJ-G2, (glioblastoma); MCF-7, (breast carcinoma); A2780 (ovarian carcinoma); H460 (lung carcinoma); A431 (skin carcinoma); Du145 (prostate carcinoma); BE2-C (neuroblastoma); MiaPaCa-2 (pancreatic carcinoma); and SMA560 (spontaneous murine astrocytoma), together with the one non-tumour-derived normal breast cell line (MCF10A). All cell lines were incubated in a humidified atmosphere 5% CO2 at 37 °C. The cancer cell lines were maintained in Dulbecco’s modified Eagle’s medium (DMEM; Sigma, Australia) supplemented with foetal bovine serum (10%), sodium pyruvate (10 mM), penicillin (100 IUmL^−1), streptomycin (100 µg mL^−1) and L-glutamine (2 mM).
Growth inhibition was determined by plating cells in duplicate in medium (100 µL) at a density of 2500–4000 cells per well in 96-well plates. On day 0 (24 h after plating), when the cells were in logarithmic growth, medium (100 µL) with or without the test agent was added to each well. After 72 h drug exposure, growth inhibitory effects were evaluated using the MTT (3-(4,5-dimethyltiazol-2-yl)-2,5-diphenyltetrazolium bromide) assay and absorbance read at 540 nm. The percentage growth inhibition was calculated at a fixed concentration of 25 µM, based on the difference between the optical density values on day 0 and those at the end of drug exposure. Each data point is the mean ± the standard error of the mean (SEM) calculated from three replicates which were performed on separate occasions and separate cell line passages.

[3] = system: bovine kidney N-acetyl-β-glucosaminidase; assay: Glycosidase inhibition, laboratory 2: N-acetyl-β-glucosaminidase; assay type: biochemical; settings: water
Protocol: as §3

[4] = Appearance of the 1 mg/mL aqueous solution tested; assay type: physicochemical; settings: 1 mg/mL in water
[5] = target: T1, bovine liver β-glucosidase (Bos taurus, UniProt F1MNT6); assay: Glycosidase inhibition, laboratory 1: bovine liver β-glucosidase; assay type: biochemical; settings: methanol
T1 sequence (F1MNT6 1-469): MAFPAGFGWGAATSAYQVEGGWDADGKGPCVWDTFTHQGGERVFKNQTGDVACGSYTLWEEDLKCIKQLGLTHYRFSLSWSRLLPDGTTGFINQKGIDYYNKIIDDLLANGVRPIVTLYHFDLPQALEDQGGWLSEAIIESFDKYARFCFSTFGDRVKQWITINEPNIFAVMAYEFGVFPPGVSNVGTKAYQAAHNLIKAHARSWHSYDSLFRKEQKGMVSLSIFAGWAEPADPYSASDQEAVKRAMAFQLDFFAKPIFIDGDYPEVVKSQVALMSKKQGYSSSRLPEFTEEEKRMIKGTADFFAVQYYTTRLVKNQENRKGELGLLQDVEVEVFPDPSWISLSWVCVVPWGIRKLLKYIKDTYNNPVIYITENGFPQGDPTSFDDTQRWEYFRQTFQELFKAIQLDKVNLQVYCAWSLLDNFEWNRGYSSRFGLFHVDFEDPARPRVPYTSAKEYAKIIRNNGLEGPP
Text: as §1, §2

BE2-C = assay: MTT cell growth inhibition: BE2-C; assay type: cell-based; settings: Homo sapiens, BE(2)-C, read-out: GI50 = Concentration (µM) that inhibits cell growth by 50%; BE2-C neuroblastoma; dose response
HT29 = assay: MTT cell growth inhibition: HT29; assay type: cell-based; settings: Homo sapiens, HT-29, read-out: GI50 = Concentration (µM) that inhibits cell growth by 50%; HT29 colon carcinoma; dose response
[6] = system: panel of 10 cancer cell lines and a normal cell line (MCF10A); assay: Cancer screening: whole cell line panel; assay type: cell-based; settings: for GI50: Homo sapiens, read-out: GI50 values across all cancer cell lines and the normal cell line
SJ-G2 = assay: MTT cell growth inhibition: SJ-G2; assay type: cell-based; settings: read-out: GI50 = Concentration (µM) that inhibits cell growth by 50%; SJ-G2 glioblastoma; dose response
MCF10A = assay: MTT cell growth inhibition: MCF10A normal breast; assay type: cell-based; settings: Homo sapiens, MCF-10A, read-out: GI50 = Concentration (µM) that inhibits cell growth by 50%

Molecule	inhibition % at 100 μM (almond β-glucosidase)	inhibition % at 100 μM [1]	inhibition at 25 µM (MIA-Pa-Ca2) [%]	Appearance of the 1 mg/mL Aqueous Solution Tested [4]	GI50 (BE2-C) [µM]	GI50 (HT29) [µM]	GI50 [6] [µM]	% inhibition at ~400 μM [2] [%]	% inhibition at ~400 μM [3] [%]	GI50 (SJ-G2) [µM]	GI50 (MCF10A) [µM]	also measured
N[C@@H](Cc1ccc(B(O)O)cc1)C(=O)O [BPA, 4-borono-L-phenylalanine, reference compound]	^cNI ^d (0%)	^cNI ^d (7.4%)	3 ± 3	some in solution with undissolved sediment								% inhibition at ~400 μM ([2]; 400 µM): −0.7%; % inhibition at ~400 μM ([3]; 400 µM): 6.7%
N[C@@H](Cc1ccc(B(O)O)cc1)C(=O)O [^10B-BPA, reference compound]	^cNI ^d (0%)	^cNI ^d (0%)		some in solution with undissolved sediment								inhibition % at 100 μM ([5]; 100 μM): ^cNI ^d (14.2%); % inhibition at ~400 μM ([2]; 400 µM): −1%; Percentage (%) Cell Growth Inhibition in response to 25 µM of Drug (MIA-Pa-Ca2): 11 ± 3%; % inhibition at ~400 μM ([3]; 400 µM): 6.3%
CC1(C)OB(c2cccc(CN3C(=O)c4c(Cl)c(Cl)c(Cl)c(Cl)c4C3=O)c2)OC1(C)C [meta 3, 4,5,6,7-Tetrachloro-2-(3-(4,4,5,5-tetramethyl-1,3,2-dioxaborolan-2-yl)benzyl)isoindoline-1,3-dione]			29 ± 2	opaque suspension	29 ± 0.58	26 ± 2.6	18 to 38	5.8	17.1	35 ± 1.7	18 ± 1	inhibition at 10 µM [5]: 18.8%; inhibition % at 10 μM (almond β-glucosidase): ^cNI ^d (5.0%); inhibition % at 10 μM [1]: ^cNI ^d (5.7%)
CC1(C)OB(c2cccc(NC(=O)c3cc(Cl)c(Cl)c(Cl)c3Cl)c2)OC1(C)C [meta 5, 2,3,4,5-tetrachloro-N-(3-(4,4,5,5-tetramethyl-1,3,2-dioxaborolan-2-yl)phenyl)benzamide]	^aNI ^b (30.2%)	^aNI ^b (6.0%)	8 ± 5	some in solution with undissolved sediment				−5.7	30.6			
CC1(C)OB(c2ccccc2NC(=O)c2cc(Cl)c(Cl)c(Cl)c2Cl)OC1(C)C [ortho 5, 2,3,4,5-Tetrachloro-N-(2-(4,4,5,5-tetramethyl-1,3,2-dioxaborolan-2-yl)phenyl)benzamide]			100 ± 3	some in solution with undissolved sediment	16 ± 0.58	14 ± 1.7	11 to 27	−3.5	28.8	16 ± 0.91	27 ± 2.8	inhibition at 10 µM [5]: 21.2%; inhibition % at 10 μM (almond β-glucosidase): ^cNI ^d (11.6%); inhibition % at 10 μM [1]: ^cNI ^d (0%)
CC1(C)OB(c2ccccc2CNC(=O)c2cc(Cl)c(Cl)c(Cl)c2Cl)OC1(C)C [ortho 8, 2,3,4,5-tetrachloro-N-(2-(4,4,5,5-tetramethyl-1,3,2-dioxaborolan-2-yl)benzyl)benzamide]		^aNI ^b (16.3%)	6 ± 10	some in solution with undissolved sediment				−6.3	28.3			IC50 (almond β-glucosidase): 254 µM; Percent cell growth inhibition across the cell line panel ([6]; 25 μM, range or words over cell lines): almost complete abrogation of cell growth inhibition
CC1(C)OB(c2ccc(CN3C(=O)c4c(Cl)c(Cl)c(Cl)c(Cl)c4C3=O)cc2)OC1(C)C [para 3, 4,5,6,7-Tetrachloro-2-(4-(4,4,5,5-tetramethyl-1,3,2-dioxaborolan-2-yl)benzyl)isoindoline-1,3-dione]	^aNI ^b (0.7%)	^aNI ^b (1.0%)	98 ± 3	some in solution with undissolved sediment	8.1 ± 1.7	5.3 ± 1.3	3 to 18	2.1	8.3	6.6 ± 2.4	12 ± 0.58	inhibition at 100 µM ([5]; 100 μM): 4%
CC1(C)OB(c2ccc(NC(=O)c3cc(Cl)c(Cl)c(Cl)c3Cl)cc2)OC1(C)C [para 5, 2,3,4,5-tetrachloro-N-(4-(4,4,5,5-tetramethyl-1,3,2-dioxaborolan-2-yl)phenyl)benzamide]	^aNI ^b (17.1%)	^aNI ^b (36.5%)	52 ± 1	some in solution with undissolved sediment				−2.2	20.6			
Borocaptate sodium [BSH, reference compound]				in solution				31.6	37.1			inhibition % at 1000 μM ([5]; 1000 μM): ^aNI ^b (15%); inhibition % at 1000 μM (almond β-glucosidase; 1000 μM): ^aNI ^b (0%); inhibition % at 1000 μM ([1]; 1000 μM): ^aNI ^b (19.6%); Percentage (%) Cell Growth Inhibition in response to 25 µM of Drug (MIA-Pa-Ca2): 2 ± 6%
